Assay [1] has as its system Human breast cancer cell line T47D. Kind of assay: Potentiation of MMS induced apoptosis, cell based caspase-3 activity assay.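 Also: Caspase-3 activity in cell lysates measured by fluorescence (RFU), EC50 fitted from sigmoidal curve of signal versus log compound concentration in presence of MMS.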 The settings on record: Homo sapiens, T47D, 24 h, read-out: Compounds potentiate the apoptosis inducing activity of MMS (EC50).
Description: Human breast cancer cell line T47D (Nanjing KeyGEN Biotech. CO., LTD.) was used to determine the potentiation effect of PARP-1 inhibitors on the apoptosis inducing activity of DNA damaging anticancer drugs such as MMS. Intracellular caspase-3 activity was used to measure cell apoptosis. Briefly, T47D cells were grown in DMEM/F12 cell culture medium (Hyclone) supplemented with 0.2 U/ml insulin (Genview) and 10% FBS (Hyclone). A day before experiment, 20000 of T47D cells were seeded to each well of a 96-well cell culture plate and maintained at 37° C. and 5% CO2 in a cell culture incubator overnight. On the day of experiment, cell culture medium was removed. […] The serial dilutions of the compounds to be tested and the reference compounds were made in a 1:3 and 1:10 fashion in DMSO. The 10-fold compound solutions were made by mixing 10 μl DMSO serial dilution solutions with 90 μl fresh growth medium. Twenty four hours later, the cells in the 96-well plates were centrifuged at 1000 g for 5 min and the supernatants were removed. 50 μl lysis buffer (10 mM Tris, pH 7.5, 0.1M NaCl, 1 mM EDTA, 0.01% Triton X-100) was added to each well and the plates were shaked horizontally for 30 min at 4° C. After centrifugation at 1000 g at 4° C. for 10 min, 20 μl of supernatant was transferred from each well to a corresponding well in a 384-well black plate. […] The plates were shaked to uniformly mix the wells and incubated at 37° C. for 3 h. […] The caspase-3 activity induced by the compounds was expressed as a relative fluorescence unit (RFU). The obtained fluorescence readings were analyzed using a commercial graphic software (GraphPad Prism 5) and plotted against the Log value of the compound concentrations. The EC50 values were obtained by fitting the data points with the equation of Y (fluorescence reading)=minimal fluorescence reading+(maximal fluorescence reading−minimal fluorescence reading)/(1+10̂(LogEC50−LogC)), where C is the concentration of the testing compound. The EC50 values were obtained by fitting the data points with S-shaped dose response curve equation (GraphPad Software, Inc).
Assay [2] has as its system BRCA-2 deficient CAPAN-1 human pancreatic cancer cells. In words: Cell growth inhibition of BRCA-2 deficient CAPAN-1 cells, MTT based cell viability assay. The conditions noted are these: Homo sapiens, CAPAN-1, 240 h, read-out: Growth inhibition of CAPAN-1 cells by compounds (IC50).
Description: BRCA-2 deficient CAPAN-1 human pancreatic cancer cells were used to test the growth inhibiting activity of substituted 1-(arylmethyl)-5,6,7,8-tetrahydroquinazoline-2,4(1H,3H)-diones. Briefly, CAPAN-1 cells are grown and maintained in IMEM medium supplemented with 20% FBS. The assay takes 10 days to finish. On day 1, 6000 CAPAN-1 cells are seeded to each well of a 96-well plate. The cells are incubated at 37° C. in a CO2 cell culture incubator overnight. […] Ten-fold compound solutions were made by mixing 10 μl DMSO serial dilution solutions with 90 μl fresh growth medium. The cell culture medium was removed and 180 μl fresh media with FBS and 20 μl of compound solutions were added to each well. The final concentration of DMSO was 1%. Cells were then returned to the CO2 cell culture incubator and incubated at 37° C. for two days (day 3 and day 4). On day 5, the same procedure as what was done on day 2 was repeated. Cell culture medium was removed and fresh medium containing serial dilutions of compounds or reference compounds were added. Cells were returned to the CO2 cell culture incubator and incubated for two more days. On day 8, same procedure was repeated again and fresh medium containing the testing compounds or reference compounds were added and incubated for an additional 2 days. On day 10, 20 μl of MTT reagent (5 mg/ml) was added to each well of the cell culture plate and incubated for 4 h. The cell culture media was removed and 100 μl DMSO was added to each well. The 96-well cell culture plates were shaked horizontally for 10 min and readed in a Varioskan Flash plate reader (Thermo Fisher Scientific) at 520 and 690 nm. The obtained 520 nm absorbance readings substracting corresponding 690 nm reading were analyzed using a commercial graphic software (GraphPad Prism 5) and plotted against the Log scale of the compound concentrations.
For assay [3], the system named is SW620 human colorectal cancer cells. Kind of assay: Potentiation of the growth inhibiting activity of MMS, MTT based cell viability assay. The settings on record: Homo sapiens, SW-620, 120 h, read-out: Compounds potentiate the growth inhibiting activity of MMS (IC50).
Description: The synergistic potentiation effect of PARP inhibitors on the growth inhibiting activity of DNA damaging anticancer drugs such as methyl methanesulphonate (MIMS) were measured with SW620 human colorectal cancer cells (Shanghai Cancer Institute) using a MTT based cell viability assay. SW620 cells were grown and maintained in RPMI1640 (Gibco) medium supplemented with 10% FBS (Hyclone). In the first day of experiment, 4000 cells were seeded to each well of a 96-well cell culture plate and incubated at 37° C. and 5% CO2 in a cell culture incubator overnight. In the next day, the cell culture medium was removed. […] The serial dilutions of the reference compounds and the compounds to be tested were made with a 1:3 and 1:10 fashion in DMSO. The 10-fold concentrated solutions of these compounds were made by mixing 10 μl of the serial dilutions in DMSO with 90 μl fresh medium. The final concentration of DMSO in the medium was 1%. The cells were incubated at 37° C. in 5% CO2 cell culture incubator for additional 5 days (120 hours). Afterwards, the 96-well cell culture plate was taken out and 20 μl of MTT solution was added to each well and incubated at 37° C. for 4 h. The medium was removed and 100 μl DMSO was added to each well. The 96-well cell culture plates were shaked adequately for 10 min and readed in a Varioskan Flash plate reader (Thermo Fisher Scientific) at 520 and 690 nm. The data were analyzed by Prism 5 software (GraphPad). The obtained 520 nm absorbance readings substracting corresponding 690 nm reading were analyzed and plotted against the Log scale of the compound concentrations.
Assay [4] concerns the target T1, PARP-1 enzyme (Homo sapiens, UniProt P09874).
T1 construct: purchased Trevigen, Inc. 4676-096-K
In words: PARP-1 enzymatic activity assay (Trevigen 96-well kit). The class given is biochemical. The settings on record: 0.5 unit PARP-1, histone pre-coated plate, 60 min room temperature; read-out: The inhibitory effect of compounds on PARP-1 enzymatic activity (IC50). As to the method: Briefly, PARP-1 catalyzes the NAD-dependent addition of poly(ADP-ribose) to its nuclear protein substrates such as histones. The assay kit measures the incorporation of biotynylated poly(ADP-ribose) onto histone proteins in a 96-well format.
To each well of histone pre-coated plate 10 μl of 5-fold concentrations of testing compounds or reference compound, 15 μl of PARP-1 enzyme (0.5 unit) and 25 μl reaction buffer were added and the plates were incubated at room temperature for 60 min. The plates were washed with 200 μl PBS with 0.1% Triton X-100 twice and then with 200 μl PBS twice. The residual liquid was removed by carefully tapping the plates on paper towels. Equal volumes of PeroxyGlow™ solution A and B were mixed and 100 μl of the solution was added to each well. The luminescence readings were read immediately in a Varioskan Flash plate reader (Thermo Fisher Scientific).

T1 sequence (P09874 whole entry): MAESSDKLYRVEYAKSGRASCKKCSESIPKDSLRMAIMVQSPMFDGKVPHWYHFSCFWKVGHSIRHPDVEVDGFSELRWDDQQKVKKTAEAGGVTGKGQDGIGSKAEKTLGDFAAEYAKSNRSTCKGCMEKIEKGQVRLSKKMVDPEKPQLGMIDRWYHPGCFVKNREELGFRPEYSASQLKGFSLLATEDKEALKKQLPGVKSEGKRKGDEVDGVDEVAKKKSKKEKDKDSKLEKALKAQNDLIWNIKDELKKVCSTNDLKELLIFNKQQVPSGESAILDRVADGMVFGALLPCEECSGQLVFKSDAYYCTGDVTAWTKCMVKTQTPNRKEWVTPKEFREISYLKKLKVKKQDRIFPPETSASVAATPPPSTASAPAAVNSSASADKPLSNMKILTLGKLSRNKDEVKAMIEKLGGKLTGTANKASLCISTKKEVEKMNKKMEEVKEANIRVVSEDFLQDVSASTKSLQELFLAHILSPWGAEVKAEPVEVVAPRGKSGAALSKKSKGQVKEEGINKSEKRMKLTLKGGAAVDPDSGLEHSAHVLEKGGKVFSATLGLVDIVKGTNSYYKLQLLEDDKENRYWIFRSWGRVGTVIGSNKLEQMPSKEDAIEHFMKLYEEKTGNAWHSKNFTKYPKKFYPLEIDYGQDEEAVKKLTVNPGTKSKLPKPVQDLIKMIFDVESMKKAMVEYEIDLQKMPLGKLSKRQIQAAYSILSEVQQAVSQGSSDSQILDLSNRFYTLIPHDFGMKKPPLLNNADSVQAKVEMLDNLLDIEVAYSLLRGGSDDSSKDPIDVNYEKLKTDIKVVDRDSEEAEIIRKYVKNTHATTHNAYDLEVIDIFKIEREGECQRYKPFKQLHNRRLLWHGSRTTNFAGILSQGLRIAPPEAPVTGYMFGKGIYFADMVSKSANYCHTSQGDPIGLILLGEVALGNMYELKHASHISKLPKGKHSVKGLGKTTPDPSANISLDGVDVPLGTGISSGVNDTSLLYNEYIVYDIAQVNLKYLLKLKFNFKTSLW

A word on the EC50: it is the concentration at which the effect is half-maximal. The term IC50 denotes the point on the concentration scale where inhibition reaches its midpoint. Regarding `O=C(c1ccsc1)N1CCN(C(=O)c2cc(Cn3c4c(c(=O)[nH]c3=O)CCCC4)ccc2F)CC1` [Example 36, 1-(4-Fluoro-3-(4-(thiophene-3-carbonyl)piperazine-1-carbonyl)benzyl)-5,6,7,8-tetrahydroquinazoline-2,4(1H,3H)-dione], in assay [1], the EC50 was 13 nM. Further, the IC50 was 221 nM in assay [2] and 3.4 nM in assay [3].
As for `O=C(c1ccc(F)c(Cn2c3c(c(=O)[nH]c2=O)CCCC3)c1)N1CCN(c2ccccn2)CC1` [Example 47, 1-(6-Fluoro-3-(4-(pyridin-2-yl)piperazine-1-carbonyl)benzyl)-5,6,7,8-tetrahydroquinazoline-2,4(1H,3H)-dione], in assay [1], the EC50 was 6.4 nM. The IC50 worked out at 116 nM in assay [2] and 4.6 nM in assay [3].
The corresponding values for `O=C(c1ccco1)N1CCN(C(=O)c2cc(Cn3c4c(c(=O)[nH]c3=O)CCCC4)ccc2F)CC1` [Example 27, 1-(4-Fluoro-3-(4-(furan-2-carbonyl)piperazine-1-carbonyl)benzyl)-5,6,7,8-tetrahydroquinazoline-2,4(1H,3H)-dione] are 58 nM, 81 nM and 9.7 nM.
On to `O=C(c1cc(Cc2n[nH]c(=O)c3ccccc23)ccc1F)N1CCN(C(=O)C2CC2)CC1` [AZD2281, olaparib, reference compound], for which, in assay [1], the half-maximal effective concentration (EC50) was found to be 14 nM. Also, the IC50 in assay [2] came out at 1070 nM; in assay [3], 46 nM.
In the case of `O=C(c1cc(Cn2c3c(c(=O)[nH]c2=O)CCCC3)ccc1F)N1CCN(c2ncccn2)CC1` [Example 20], the EC50 in assay [1] worked out at 0.99 nM. The IC50 in assay [2] turned out to be 17 nM; in assay [3], 0.83 nM; in assay [4], 2.6 nM.
With `O=C(c1ccsc1)N1CCN(C(=O)c2ccc(F)c(Cn3c4c(c(=O)[nH]c3=O)CCCC4)c2)CC1` [Example 46, 1-(6-Fluoro-3-(4-(thiophene-3-carbonyl)piperazine-1-carbonyl)benzyl)-5,6,7,8-tetrahydroquinazoline-2,4(1H,3H)-dione], the EC50 in assay [1] stood at 13 nM. For the same molecule, the IC50 in assay [2] amounted to 703 nM; in assay [3] it was 10 nM.
The corresponding values for `O=C(c1cc(Cn2c3c(c(=O)[nH]c2=O)CCCC3)ccc1F)N1CCN(c2ccccc2)CC1` [Example 33, 1-(4-Fluoro-3-(4-phenylpiperazine-1-carbonyl)benzyl)-5,6,7,8-tetrahydroquinazoline-2,4(1H,3H)-dione] are 187 nM, 3650 nM and 7.6 nM.
